These compounds were tested against T1, CRTH2 (Homo sapiens, UniProt Q9Y5Y4) (assay: FRET based competitive immunoassay (cAMP) in CRTH2 expressing CHO cells). Conditions: CRTH2 expressing CHO cells incubated with forskolin and PGD2; Eu3+ cryptate-labeled anti-cAMP and d2-labeled cAMP.
T1 construct: expressed in transfected cells; host or cells: CHO cells
T1 sequence (Q9Y5Y4 1-395): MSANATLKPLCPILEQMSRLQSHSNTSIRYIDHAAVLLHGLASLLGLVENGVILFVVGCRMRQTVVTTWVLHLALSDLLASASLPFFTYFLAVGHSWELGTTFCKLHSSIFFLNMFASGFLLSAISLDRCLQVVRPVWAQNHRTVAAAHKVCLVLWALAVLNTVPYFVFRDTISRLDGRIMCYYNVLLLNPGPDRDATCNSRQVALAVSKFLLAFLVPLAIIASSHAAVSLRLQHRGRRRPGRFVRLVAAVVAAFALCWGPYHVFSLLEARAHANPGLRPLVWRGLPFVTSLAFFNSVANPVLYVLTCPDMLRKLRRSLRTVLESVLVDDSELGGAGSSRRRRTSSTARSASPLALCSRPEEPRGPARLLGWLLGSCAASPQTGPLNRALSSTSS
Assay type: cell-based
Method: FRET Assay: To evaluate potency compounds were tested in a FRET based competitive immunoassay in which CRTH2 expressing CHO cells were incubated in the presence of forskolin and PGD2 along with Eu3+ cryptate-labeled anti-cAMP and d2-labeled cAMP.
In the case of `Cc1c(-c2ccc(=O)n(Cc3ccccc3)n2)c2cc(F)cc(F)c2n1CC(=O)O` [Example 233, 2-(3-(1-benzyl-6-oxo-1,6-dihydropyridazin-3-yl)-5,7-difluoro-2-methyl-1H-indol-1-yl)acetic acid], the IC50 is reported as 147 nM. `Cc1c(-c2ccc(=O)n(Cc3ccccc3)n2)c2cc(Cl)cc(Cl)c2n1CC(=O)O` [Example 234, 2-(3-(1-benzyl-6-oxo-1,6-dihydropyridazin-3-yl)-5,7-dichloro-2-methyl-1H-indol-1-yl)acetic acid] was tested, and the IC50 was 1000 nM. In the case of `Cc1c(-c2ccc(=O)n(C(C)C)n2)c2cc(Cl)cc(Cl)c2n1CC(=O)O` [Example 235, 2-(5,7-dichloro-3-(1-isopropyl-6-oxo-1,6-dihydropyridazin-3-yl)-2-methyl-1H-indol-1-yl)acetic acid], the IC50 is reported as 1580 nM. For `Cc1c(-c2ccc(=O)n(Cc3ccccc3)n2)c2cc(F)cc(S(C)(=O)=O)c2n1CC(=O)O` [Example 236, 2-(3-(1-benzyl-6-oxo-1,6-dihydropyridazin-3-yl)-5-fluoro-2-methyl-7-(methyl-sulfonyl)-1H-indol-1-yl)acetic acid], the IC50 was over 1000 nM. Compound `Cc1c(-c2nn(Cc3ccccc3)c(=O)c3ccccc23)c2cc(F)cc(S(C)(=O)=O)c2n1CC(=O)O` [Example 237, 2-(3-(3-benzyl-4-oxo-3,4-dihydrophthalazin-1-yl)-5-fluoro-2-methyl-7-(methyl-sulfonyl)-1H-indol-1-yl)acetic acid] has an IC50 of over 1000 nM. Work on `Cc1c(Cc2ccc(=O)n(Cc3ccc(C(C)(C)O)cc3)n2)c2cc(F)ccc2n1CC(=O)O` [Example 238, 2-(5-fluoro-3-((1-(4-(2-hydroxypropan-2-yl)benzyl)-6-oxo-1,6-dihydropyridazin-3-yl)methyl)-2-methyl-1H-indol-1-yl)acetic acid] yielded an IC50 of 13 nM. Work on `Cc1c(Cc2ccc(=O)n(Cc3ccc(C(O)(C(F)(F)F)C(F)(F)F)cc3)n2)c2cc(F)ccc2n1CC(=O)O` [Example 239, 2-(5-fluoro-3-((1-(4-(1,1,1,3,3,3-hexafluoro-2-hydroxypropan-2-yl)benzyl)-6-oxo-1,6-dihydropyridazin-3-yl)methyl)-2-methyl-1H-indol-1-yl)acetic acid] yielded an IC50 of 7 nM. For `Cc1c(Cc2ccc(=O)n(Cc3cccc(C(C)(C)O)c3)n2)c2cc(F)ccc2n1CC(=O)O` [Example 240, 2-(5-fluoro-3-((1-(3-(2-hydroxypropan-2-yl)benzyl)-6-oxo-1,6-dihydropyridazin-3-yl)methyl)-2-methyl-1H-indol-1-yl)acetic acid], the IC50 was 4 nM. With `Cc1c(Cc2ccc(=O)n(Cc3ccc(F)cc3F)n2)c2cc(F)cc(F)c2n1CC(=O)O` [Example 242, 2-(3-((1-(2,4-difluorobenzyl)-6-oxo-1,6-dihydropyridazin-3-yl)methyl)-5,7-difluoro-2-methyl-1H-indol-1-yl)acetic acid] the IC50 was 28 nM. `Cc1c(-c2nn(Cc3ccccc3)c(=O)c3ccccc23)c2cc(F)cc(Cl)c2n1CC(=O)O` [Example 243, 2-(3-(3-benzyl-4-oxo-3,4-dihydrophthalazin-1-yl)-7-chloro-5-fluoro-2-methyl-1H-indol-1-yl)acetic acid] gave an IC50 of 33 nM. For `Cc1c(-c2nn(Cc3ccccc3)c(=O)c3ccccc23)c2cc(F)cc(F)c2n1CC(=O)O` [Example 244, 2-(3-(3-benzyl-4-oxo-3,4-dihydrophthalazin-1-yl)-5,7-difluoro-2-methyl-1H-indol-1-yl)acetic acid], the IC50 was 60 nM. `Cc1c(-c2nn(Cc3ccccc3)c(=O)c3ccccc23)c2cc(Cl)cc(Cl)c2n1CC(=O)O` [Example 245, 2-(3-(3-benzyl-4-oxo-3,4-dihydrophthalazin-1-yl)-5,7-dichloro-2-methyl-1H-indol-1-yl)acetic acid] showed an IC50 of 587 nM. `Cc1c(-c2ccc(=O)n(Cc3ccccc3)n2)c2cccc(Br)c2n1CC(=O)O` [Example 246, 2-(3-(1-benzyl-6-oxo-1,6-dihydropyridazin-3-yl)-7-bromo-2-methyl-1H-indol-1-yl)-acetic acid] showed an IC50 of over 2000 nM. For `Cc1c(-c2cn(Cc3ccccc3)c(=O)c3ccccc23)c2ccccc2n1CC(=O)O` [Example 247, 2-(3-(2-benzyl-1-oxo-1,2-dihydroisoquinolin-4-yl)-2-methyl-1H-indol-1-yl)-acetic acid], the IC50 was 12 nM. `Cc1c(-c2cn(Cc3ccccc3)c(=O)c3ccccc23)c2cc(F)ccc2n1CC(=O)O` [Example 248, 2-(3-(2-benzyl-1-oxo-1,2-dihydroisoquinolin-4-yl)-5-fluoro-2-methyl-1H-indol-1-yl)acetic acid] gave an IC50 of 15 nM. `Cc1c(-c2cn(C(C)C)c(=O)c3ccccc23)c2cc(F)ccc2n1CC(=O)O` [Example 249, 2-(5-fluoro-3-(2-isopropyl-1-oxo-1,2-dihydroisoquinolin-4-yl)-2-methyl-1H-indol-1-yl)acetic acid] was tested, and the IC50 was 5 nM. For `Cc1c(-c2cn(CC(F)(F)F)c(=O)c3ccccc23)c2cc(F)ccc2n1CC(=O)O` [Example 250, 2-(5-fluoro-2-methyl-3-(1-oxo-2-(2,2,2-trifluoroethyl)-1,2-dihydroiso-quinolin-4-yl)-1H-indol-1-yl)acetic acid], the IC50 was 4 nM. In the case of `Cc1c(-c2cn(CC(F)(F)F)c(=O)c3ccccc23)c2ccccc2n1CC(=O)O` [Example 251, 2-(2-methyl-3-(1-oxo-2-(2,2,2-trifluoroethyl)-1,2-dihydroisoquinolin-4-yl)-1H-indol-1-yl)acetic acid], the IC50 is reported as 205 nM. `Cc1c(-c2cn(C(C)C)c(=O)c3ccccc23)c2ccccc2n1CC(=O)O` [Example 252, 2-(3-(2-isopropyl-1-oxo-1,2-dihydroisoquinolin-4-yl)-2-methyl-1H-indol-1-yl)acetic acid] showed an IC50 of 12 nM. With `COC(F)(F)Cn1cc(-c2c(C)n(CC(=O)O)c3ccccc23)c2ccccc2c1=O` [Example 253, 2-(3-(2-(2,2-difluoro-2-methoxyethyl)-1-oxo-1,2-dihydroisoquinolin-4-yl)-2-methyl-1H-indol-1-yl)acetic acid] the IC50 was 9 nM. `Cc1c(-c2cn(CC(C)(C)O)c(=O)c3ccccc23)c2cc(F)ccc2n1CC(=O)O` [Example 254, 2-(5-fluoro-3-(2-(2-hydroxy-2-methylpropyl)-1-oxo-1,2-dihydroisoquinolin-4-yl)-2-methyl-1H-indol-1-yl)acetic acid] was tested, and the IC50 was 15 nM. `Cc1c(-c2cn(CC(O)(C(F)(F)F)C(F)(F)F)c(=O)c3ccccc23)c2cc(F)ccc2n1CC(=O)O` [Example 255, 2-(5-fluoro-2-methyl-3-(1-oxo-2-(3,3,3-trifluoro-2-hydroxy-2-(trifluoro-methyl)propyl)-1,2-dihydroisoquinolin-4-yl)-1H-indol-1-yl)acetic acid] showed an IC50 of 55 nM. `Cc1c(-c2cn(CCCC(F)(F)F)c(=O)c3ccccc23)c2cc(F)ccc2n1CC(=O)O` [Example 256, (5-fluoro-2-methyl-3-(1-oxo-2-(4,4,4-trifluorobutyl)-1,2-dihydroisoquinolin-4-yl)-1H-indol-1-yl)acetic acid] showed an IC50 of 2 nM. Compound `Cc1c(-c2cn(CC(C)(C)C)c(=O)c3ccccc23)c2cc(F)ccc2n1CC(=O)O` [Example 257, 2-(5-fluoro-2-methyl-3-(2-neopentyl-1-oxo-1,2-dihydroisoquinolin-4-yl)-1H-indol-1-yl)acetic acid] has an IC50 of 3 nM. In the case of `Cc1c(-c2nn(CC(N)=O)c(=O)c3ccccc23)c2cc(F)ccc2n1CC(=O)O` [Example 258, {3-[3-(2-amino-2-oxoethyl)-4-oxo-3,4-dihydrophthalazin-1-yl]-5-fluoro-2-methyl-1H-indol-1-yl}acetic acid], the IC50 is reported as 11 nM. For `Cc1c(-c2nn(Cc3nnc[nH]3)c(=O)c3ccccc23)c2cc(Cl)ccc2n1CC(=O)O` [Example 259a, 2-(3-(3-((4H-1,2,4-triazol-3-yl)methyl)-4-oxo-3,4-dihydrophthalazin-1-yl)-5-chloro-2-methyl-1H-indol-1-yl)acetic acid], the IC50 was 61 nM. In the case of `Cc1nnc(Cn2nc(-c3c(C)n(CC(=O)O)c4ccc(Cl)cc34)c3ccccc3c2=O)[nH]1` [Example 259b, 2-(5-chloro-2-methyl-3-(3-((5-methyl-4H-1,2,4-triazol-3-yl)methyl)-4-oxo-3,4-dihydrophthalazin-1-yl)-1H-indol-1-yl)acetic acid], the IC50 is reported as 26 nM. `Cc1c(-c2nn(CC(N)=O)c(=O)c3ccccc23)c2cc(Cl)ccc2n1CC(=O)O` [Example 259c, 2-(3-(3-(2-amino-2-oxoethyl)-4-oxo-3,4-dihydrophthalazin-1-yl)-5-chloro-2-methyl-1H-indol-1-yl)acetic acid] was tested, and the IC50 was 23 nM. Compound `Cc1c(-c2ccc(=O)n(Cc3nnc[nH]3)n2)c2cc(F)ccc2n1CC(=O)O` [Example 260a, 2-(3-(1-((4H-1,2,4-triazol-3-yl)methyl)-6-oxo-1,6-dihydropyridazin-3-yl)-5-fluoro-2-methyl-1H-indol-1-yl)acetic acid] has an IC50 of 3380 nM. `Cc1nnc(Cn2nc(-c3c(C)n(CC(=O)O)c4ccc(F)cc34)ccc2=O)[nH]1` [Example 260b, 2-(5-fluoro-2-methyl-3-(1-((5-methyl-4H-1,2,4-triazol-3-yl)methyl)-6-oxo-1,6-dihydro-pyridazin-3-yl)-1H-indol-1-yl)acetic acid] was tested, and the IC50 was 1650 nM. `Cc1c(-c2nn(Cc3ncnn3-c3ccccc3)c(=O)c3ccccc23)c2cc(F)ccc2n1CC(=O)O` [Example 261, 2-(5-fluoro-2-methyl-3-(4-oxo-3-((1-phenyl-1H-1,2,4-triazol-5-yl)methyl)-3,4-dihydrophthalazin-1-yl)-1H-indol-1-yl)acetic acid] showed an IC50 of 11 nM.
